Test results from patent US20230323358A1, “COMPOSITION AND USE OF siRNAs AGAINST VEGFR2 AND TGF-BETA1 IN COMBINATION THERAPY FOR CANCER” (Sirnaomics, Inc., priority 2021, published 2023).
Read-outs that look alike come from different tables or passages of the source. Oligonucleotides are written 5' to 3', each unit as a sugar letter and its base; * is a phosphorothioate linkage, no mark a phosphodiester; rarer units and linkages stand in square brackets, end groups in braces. Plain capitals give the bases only. {P} = phosphorylation (indicated by P); d = 2'-deoxy (DNA); m = 2'-O-methyl; r = 2'-OH (RNA); f = 2'-fluoro

Tested on: VEGFR2
Test: EC50 of VEGFR2 siRNA candidates before and after modification, knockdown in cells
Type: cell-based, human
Conditions: for EC50: 24 h, 24well; for knockdown effect of the modified sequence compared with unmodified: PANC-1 and MDA-MB-231 cells
Method: MDA-MB-231 and U87 cells were seeded in 24-well cell plates (1 × 10^5/well), and then siRNAs (21mer or 25mer or negative control) were transfected with commercial transfection reagent (lipo2000), and the siRNA transfection concentration was 100 nM. Meanwhile, untreated cells were set as blank control. Total RNA was extracted from cells 24 h after transfection. Reverse transcription was performed using the kit to obtain cDNA according to the manufacturer’s instructions. Relative levels of target gene VEGFR2 mRNA expression were determined by real-time PCR, normalized to the housekeeping gene β-actin. Gene knockdown effectiveness was expressed as a percentage of the blank control. […] VEGFR2-21-h1#, VEGFR2-21-h2#, VEGFR2-21-h5#, VEGFR2-21-h7#, VEGFR2-21-hm17#, VEGFR2-21-hm18#, VEGFR2-25-h3#, and VEGFR2- 25-h4# were selected and modified as indicated in Table 3 (SEQ ID Nos. 109-124).
The EC50 of candidate sequences before and after modification in different cells (MDA-MB-231, U87-MG and PANC-1) were compared. MDA-MB-231, PANC-1 and U87-MG cells were seeded in 24-well cell plates (1 × 10^5/well), and siRNA candidates (modified or unmodified) were transfected with multiple concentration gradients in different cells. Use the same procedure as the primary screen. Finally, the data were plotted using the software GraphPad Prism8 and EC50 values were calculated.

[1] = MD-MB-231 cells, read-out: EC50 (nM, 24 h, 24well) Breast cancer MD-MB-231
[2] = PANC-1 cells, read-out: EC50 (nM, 24 h, 24well) Pancreatic cancer PANC-1
[3] = U87-MG cells, read-out: EC50 (nM, 24 h, 24well) Brain cancer U87-MG

Substance | EC50 [1] [nM] | knockdown effect of the modified sequence compared with unmodified | EC50 [2] [nM] | EC50 [3] [nM]
VEGFR2-21-h1#: siRNA targeting VEGFR2 mRNA; sense SEQ ID 60, antisense SEQ ID 103 (sense GCCUAGUGUUUCUCUUGAUTT; antisense AUCAAGAGAAACACUAGGCTT; sugars from the 5' end r19 d2, backbone not given here) | 0.2 | better than that of unmodified | 0.92 | 1.25
VEGFR2-21-h1#mod: Modified (2′F, 2′OME, phosphorylation) siRNA targeting VEGFR2; sense SEQ ID 131, antisense SEQ ID 139 (sense mGmCmCmUmAmGfUfGfUmUmUmCmUmCmUmUmGmAmUdTdT; antisense {P}-mAfUmCmAmAmGmAmGmAmAmAmCmAfCmUmAmGmGmCdTdT) | 0.23 |  | 0.07 | 0.99
VEGFR2-21-h2#: siRNA targeting VEGFR2 mRNA; sense SEQ ID 61, antisense SEQ ID 104 (sense GGUCCAUUUCAAAUCUCAATT; antisense UUGAGAUUUGAAAUGGACCTT; sugars from the 5' end r19 d2, backbone not given here) | 0.72 | better than that of unmodified | 0.36 | 10.7
VEGFR2-21-h2#mod: Modified (2′F, 2′OME, phosphorylation) siRNA targeting VEGFR2; sense SEQ ID 132, antisense SEQ ID 140 (sense mGmGmUmCmCmAfUfUfUmCmAmAmAmUmCmUmCmAmAdTdT; antisense {P}-mUfUmGmAmGmAmUmUmUmGmAmAmAfUmGmGmAmCmCdTdT) | 0.14 |  | 0.08 | 2.42
VEGFR2-21-h5#: siRNA targeting VEGFR2 mRNA; sense SEQ ID 64, antisense SEQ ID 107 (sense GCAUCAGCAUAAGAAACUUTT; antisense AAGUUUCUUAUGCUGAUGCTT; sugars from the 5' end r19 d2, backbone not given here) | 0.4 | better than that of unmodified | 0.51 | 25.5
VEGFR2-21-h5#mod: Modified (2′F, 2′OME, phosphorylation) siRNA targeting VEGFR2; sense SEQ ID 137, antisense SEQ ID 145 (sense mGmCmAmUmCmAfGfCfAmUmAmAmGmAmAmAmCmUmUdTdT; antisense {P}-mAfAmGmUmUmUmCmUmUmAmUmGmCfUmGmAmUmGmCdTdT) | 0.01 |  | 0.22 | 10.4
VEGFR2-21-h7#: siRNA targeting VEGFR2 mRNA; sense SEQ ID 66, antisense SEQ ID 109 (sense GCUGACAUGUACGGUCUAUTT; antisense AUAGACCGUACAUGUCAGCTT; sugars from the 5' end r19 d2, backbone not given here) | 1.72 |  | 3 | 49.5
VEGFR2-21-h7#mod: Modified (2′F, 2′OME, phosphorylation) siRNA targeting VEGFR2; sense SEQ ID 138, antisense SEQ ID 146 (sense mGmCmUmGmAmCfAfUfGmUmAmCmGmGmUmCmUmAmUdTdT; antisense {P}-mAfUmAmGmAmCmCmGmUmAmCmAmUfGmUmCmAmGmCdTdT) | 51.4 |  | 384 | 170
VEGFR2-21-hm17#: siRNA targeting VEGFR2 mRNA; sense SEQ ID 76, antisense SEQ ID 119 (sense GGACUGGCUUUGGCCCAAUTT; antisense AUUGGGCCAAAGCCAGUCCTT; sugars from the 5' end r19 d2, backbone not given here) | 1.04 | better than that of unmodified | 2.09 | 16.6
VEGFR2-21-hm17#mod: Modified (2′F, 2′OME, phosphorylation) siRNA targeting VEGFR2; sense SEQ ID 135, antisense SEQ ID 143 (sense mGmGmAmCmUmGfGfCfUmUmUmGmGmCmCmCmAmAmUdTdT; antisense {P}-mAfUmUmGmGmGmCmCmAmAmAmGmCfCmAmGmUmCmCdTdT) | 0.32 |  | 0.25 | 312
VEGFR2-21-hm18# mod: Modified (2′F, 2′OME, phosphorylation) siRNA targeting VEGFR2; sense SEQ ID 136, antisense SEQ ID 144 (sense mGmGmAmAmAmAfAfAfCmAmAmAmAmCmUmGmUmAmAdTdT; antisense {P}-mUfUmAmCmAmGmUmUmUmUmGmUmUfUmUmUmUmCmCdTdT) | 0.02 |  | 0.06 | 1.57
VEGFR2-21-hm18#: siRNA targeting VEGFR2 mRNA; sense SEQ ID 77, antisense SEQ ID 120 (sense GGAAAAAACAAAACUGUAATT; antisense UUACAGUUUUGUUUUUUCCTT; sugars from the 5' end r19 d2, backbone not given here) | 3.26 | better than that of unmodified | 3.81 | 3.17
VEGFR2-25-h3#: siRNA targeting VEGFR2 mRNA; sense SEQ ID 43, antisense SEQ ID 86 (sense GACCAACAUGGAGUCGUGUACAUUA; antisense UAAUGUACACGACUCCAUGUUGGUC; RNA, backbone not given here) | 1.8 |  | 0.35 | 10.9
VEGFR2-25-h3#mod: Modified (2′F, 2′OME, phosphorylation) siRNA targeting VEGFR2; sense SEQ ID 133, antisense SEQ ID 141 (sense mGmAmCmCmAmAmCmAmUmGmGmAfGfUfCmGmUmGmUmAmCmAmUmUmA; antisense {P}-mUfAmAmUmGmUmAmCmAmCmGmAmCfUmCmCmAmUmGmUmUmGmGmUmC) | 1.65 |  | 1.76 | 1090
VEGFR2-25-h4#: siRNA targeting VEGFR2 mRNA; sense SEQ ID 44, antisense SEQ ID 87 (sense CCCUUGAGUCCAAUCACACAAUUAA; antisense UUAAUUGUGUGAUUGGACUCAAGGG; RNA, backbone not given here) | 0.38 |  | 0.13 | 5.39
VEGFR2-25-h 4#mod: Modified (2′F, 2′OME, phosphorylation) siRNA targeting VEGFR2; sense SEQ ID 134, antisense SEQ ID 142 (sense mCmCmCmUmUmGmAmGmUmCmCmAfAfUfCmAmCmAmCmAmAmUmUmAmA; antisense {P}-mUfUmAmAmUmUmGmUmGmUmGmAmUfUmGmGmAmCmUmCmAmAmGmGmG) | 0.21 |  | 0.35 | 34.6
